Where a name gives a salt, the structure may show the parent alone.
Tested on: rat jejunum
Assay: In vitro mucosal-to-serosal vancomycin transport, modified Ussing chambers, jejunum
Type: in vitro ADME
Conditions: jejunum
Description: We investigated regional variation in permeation of vancomycin (VCM) across various segments of rat intestine and colon in vitro by mounting isolated segments of rat intestine and colon between horizontal modified Ussing chambers. The effects of drug concentration and of addition of a p-glycoprotein inhibitor or permeation enhancer(s) as formulation additives on VCM permeation were also studied in vitro using segments of rat jejunum.
Methods: A modified Ussing system (Easy mount Ussing system, Physiological Instruments Inc., CA, Item # EM-CSYS-8) with eight sets of chambers was used for all in vitro studies; each set consisted of two parallel diffusion chambers, a heating block for temperature control, needle valves for gas flow adjustment and gas mixing, and Ag/AgCl voltage and current electrodes for measuring transepithelial voltage and for passing current.
Harvesting of required small intestinal or colon segments of a male rat was performed using experimental procedures described in the literature (Gotoh et al., J Biomol Screen (2005) 10:517-23). The harvested segments of small intestine or colon were mounted on sliders placed between the two horizontal chambers of a modified Ussing system.
VCM was dissolved in HEPES buffer pH 7.4 (Table 1) previously saturated with 100% O2 or HEPES buffer containing additives selected from permeation enhancer(s) and/or an efflux transport inhibitor (Table 2) to obtain predetermined concentrations of drug and additive(s).
Drug transport across epithelial membranes of harvested rat small intestine and colon segments, in mucosal-to-serosal (M-to-S) direction, was studied using modified Ussing Chambers. Aliquots of HEPES buffer (5 ml) were initially added to both the mucosal and serosal chambers and allowed to equilibrate for 20 minutes. The HEPES buffer in the mucosal chamber was replaced by a study sample containing VCM alone or VCM and selected additive(s) in HEPES buffer, e.g., 5 mg/mL of VCM dissolved in HEPES buffer containing 10% w/w Labrasol®. Aliquots of 0.5 mL buffer solutions were removed periodically from serosal chambers, and replaced with equal volumes of fresh warm (37±2° C.) HEPES buffer previously saturated with 100% O2. […]
Changes in transepithelial short-circuit current (in micro-Amps) and membrane resistance (in Ohms) as a function of time were monitored continuously during in vitro studies to serve as indicators of tissue viability and drug permeability, respectively. The buffer samples from the receptor chambers were analyzed for VCM content on a high pressure liquid chromatograph (HPLC; Hewlett Packard Model 1100 series).
The analysis of VCM samples was performed using a reverse phase gradient HPLC method, with a Hypersil BDS C18 column, 5 μm, 150×4.6 mm., mobile phase consisting of 5 mM potassium phosphate monobasic in water (pH 3) as solvent A and acetonitrile as solvent B at a flow rate of 1 ml/min (Farin et al., J Pharm Biomed Anal (1998) 18:367-72). The eluant was monitored by a UV/diode array detector at 280 nm.
To compare data obtained from different in vitro experiments, the apparent permeability coefficients were calculated using the equation: […]
Where dQ/dt is the linear appearance rate of mass in receiver compartment, C0 is the initial solute concentration in donor compartment, and A is the surface area (Luo et al., Drug Metab Dispos (2002) 30:763-70).

With CN[C@H](CC(C)C)C(=O)N[C@H]1C(=O)N[C@@H](CC(N)=O)C(=O)N[C@H]2C(=O)N[C@H]3C(=O)N[C@H](C(=O)N[C@H](C(=O)O)c4cc(O)cc(O)c4-c4cc3ccc4O)[C@H](O)c3ccc(c(Cl)c3)Oc3cc2cc(c3O[C@@H]2O[C@H](CO)[C@@H](O)[C@H](O)[C@H]2O[C@H]2C[C@](C)(N)[C@H](O)[C@H](C)O2)Oc2ccc(cc2Cl)[C@H]1O [Vancomycin hydrochloride] the “Ave. Cumulative Amt VCM Released” value (50 mg/ml in HEPES buffer without enhancer, 0.5 hr) was 0.97 ± 1.37 µg, the “Ave. Cumulative Amt VCM Released” value (50 mg/ml in HEPES buffer without enhancer, 1.0 hr) was 7.94 ± 5.19 µg and the “Ave. Cumulative Amt VCM Released” value (50 mg/ml in HEPES buffer without enhancer, 1.5 hr) was 22.26 ± 4.61 µg. For the same compound, the “Ave. Cumulative Amt VCM Released” value (50 mg/ml in HEPES buffer without enhancer, 2.0 hr) was 46.13 ± 1.25 µg, the “Ave. Cumulative Amt VCM Released” value (50 mg/ml in HEPES buffer without enhancer, 2.5 hr) was 69.54 ± 4.20 µg and the “Ave. Cumulative Amt VCM Released” value (5% Gelucire ® 44/14 (w/w), 0.5 hr) was 0.40 ± 0.79 µg. The “Ave. Cumulative Amt VCM Released” value (5% Gelucire ® 44/14 (w/w), 1.0 hr) was 3.72 ± 0.40 µg, the “Ave. Cumulative Amt VCM Released” value (5% Gelucire ® 44/14 (w/w), 1.5 hr) was 6.81 ± 1.07 µg and the “Ave. Cumulative Amt VCM Released” value (5% Gelucire ® 44/14 (w/w), 2.0 hr) was 10.87 ± 1.53 µg. For the same compound, the “Ave. Cumulative Amt VCM Released” value (5% Gelucire ® 44/14 (w/w), 2.5 hr) was 14.29 ± 2.36 µg, the “Ave. Cumulative Amt VCM Released” value (5% Gelucire ® 44/14 + 5% Labrasol ® (w/w), 0.5 hr) was 0.81 ± 1.40 µg and the “Ave. Cumulative Amt VCM Released” value (5% Gelucire ® 44/14 + 5% Labrasol ® (w/w), 1.0 hr) was 3.56 ± 0.25 µg. The “Ave. Cumulative Amt VCM Released” value (5% Gelucire ® 44/14 + 5% Labrasol ® (w/w), 1.5 hr) was 6.63 ± 1.67 µg, the “Ave. Cumulative Amt VCM Released” value (5% Gelucire ® 44/14 + 5% Labrasol ® (w/w), 2.0 hr) was 9.58 ± 1.81 µg and the “Ave. Cumulative Amt VCM Released” value (5% Gelucire ® 44/14 + 5% Labrasol ® (w/w), 2.5 hr) was 13.78 ± 5.10 µg. For the same compound, the “Ave. Cumulative Amt VCM Released” value (5% Polysorbate-80 (w/w), 0.5 hr) was 0.00 ± 0.00 µg, the “Ave. Cumulative Amt VCM Released” value (5% Polysorbate-80 (w/w), 1.0 hr) was 2.33 ± 0.24 µg and the “Ave. Cumulative Amt VCM Released” value (5% Polysorbate-80 (w/w), 1.5 hr) was 5.69 ± 1.64 µg. For the same compound, the “Ave. Cumulative Amt VCM Released” value (5% Polysorbate-80 (w/w), 2.0 hr) was 10.15 ± 2.82 µg, the “Ave. Cumulative Amt VCM Released” value (5% Polysorbate-80 (w/w), 2.5 hr) was 15.99 ± 3.24 µg and the “Ave. Cumulative Amt VCM Released” value (5% Polysorbate-80 + 5% w/w Labrasol ®, 0.5 hr) was 0.00 ± 0.00 µg. For the same compound, the “Ave. Cumulative Amt VCM Released” value (5% Polysorbate-80 + 5% w/w Labrasol ®, 1.0 hr) was 2.36 ± 0.16 µg, the “Ave. Cumulative Amt VCM Released” value (5% Polysorbate-80 + 5% w/w Labrasol ®, 1.5 hr) was 3.85 ± 0.39 µg and the “Ave. Cumulative Amt VCM Released” value (5% Polysorbate-80 + 5% w/w Labrasol ®, 2.0 hr) was 6.05 ± 0.80 µg. For the same compound, the “Ave. Cumulative Amt VCM Released” value (5% Polysorbate-80 + 5% w/w Labrasol ®, 2.5 hr) was 10.12 ± 1.39 µg, the “Ave. Cumulative Amt VCM Released” value (5% TPGS ® + 5% Labrasol ® (w/w), 0.5 hr) was 0.00 ± 0.00 µg and the “Ave. Cumulative Amt VCM Released” value (5% TPGS ® + 5% Labrasol ® (w/w), 1.0 hr) was 1.26 ± 1.78 µg. For the same compound, the “Ave. Cumulative Amt VCM Released” value (5% TPGS ® + 5% Labrasol ® (w/w), 1.5 hr) was 3.48 ± 1.13 µg, the “Ave. Cumulative Amt VCM Released” value (5% TPGS ® + 5% Labrasol ® (w/w), 2.0 hr) was 6.40 ± 2.08 µg and the “Ave. Cumulative Amt VCM Released” value (5% TPGS ® + 5% Labrasol ® (w/w), 2.5 hr) was 10.03 ± 3.20 µg. For the same compound, the “Papp value compared with VCM alone” value (5% w/w Labrasol® with 5% w/w Gelucire® 44/14) was “slightly higher than that of VCM alone”, the “effect on M-to-S transport of VCM” value (5% w/w Labrasol® with 5% w/w Polysorbate 80) was “slightly reduced VCM transport” and the “effect on M-to-S transport of VCM” value (5% w/w Labrasol® with 5% w/w Vitamin E TPGS®) was “slightly reduced VCM transport”. For the same compound, the “Ave. Cumulative Amt VCM Released” value (10% Labrasol ® (w/w), 0.5 hr) was 3.65 ± 1.22 µg, the “Ave. Cumulative Amt VCM Released” value (10% Labrasol ® (w/w), 1.0 hr) was 3.72 ± 2.58 µg and the “Ave. Cumulative Amt VCM Released” value (10% Labrasol ® (w/w), 1.5 hr) was 5.52 ± 1.36 µg. The “Ave. Cumulative Amt VCM Released” value (10% Labrasol ® (w/w), 2.0 hr) was 7.48 ± 1.11 µg, the “Ave. Cumulative Amt VCM Released” value (10% Labrasol ® (w/w), 2.5 hr) was 9.93 ± 1.23 µg and the “VCM transport compared with VCM alone or other excipients” value (10% w/w Labrasol®) was “lowest”. The “effect on M-to-S transport of VCM” value (Gelucire® 44/14 at 5% w/w) was “enhanced M-to-S transport”, the “Ave. Cumulative Amt VCM Released” value (HEPES only, no enhancer (enhancer / bile salt study), 0.5 hr) was 0.00 ± 0.00 µg and the “Ave. Cumulative Amt VCM Released” value (HEPES only, no enhancer (enhancer / bile salt study), 1.0 hr) was 2.16 ± 1.47 µg. The “Ave. Cumulative Amt VCM Released” value (HEPES only, no enhancer (enhancer / bile salt study), 1.5 hr) was 4.13 ± 0.74 µg, the “Ave. Cumulative Amt VCM Released” value (HEPES only, no enhancer (enhancer / bile salt study), 2.0 hr) was 8.28 ± 1.80 µg and the “Ave. Cumulative Amt VCM Released” value (HEPES only, no enhancer (enhancer / bile salt study), 2.5 hr) was 14.45 ± 3.07 µg. The “Ave. Cumulative Amt VCM Released” value (No SD (sodium decanoate study), 0.5 hr) was 0.00 ± 0.00 µg, the “Ave. Cumulative Amt VCM Released” value (No SD (sodium decanoate study), 1.0 hr) was 0.00 ± 0.00 µg and the “Ave. Cumulative Amt VCM Released” value (No SD (sodium decanoate study), 1.5 hr) was 0.00 ± 0.00 µg. The “Ave. Cumulative Amt VCM Released” value (No SD (sodium decanoate study), 2.0 hr) was 1.43 ± 0.10 µg, the “Ave. Cumulative Amt VCM Released” value (No SD (sodium decanoate study), 2.5 hr) was 2.15 ± 0.19 µg and the “effect on M-to-S transport of VCM” value (Polysorbate 80 at 5% w/w) was “enhanced M-to-S transport”.
